Each molecule was assayed against T1, DGKA (Homo sapiens, UniProt P23743) (assay: DGKA Inhibition ADP-Glo Assay). Settings: 40 μM ATP.
T1 construct: purchased SignalChem D21-10BG
Assay type: biochemical
Description: The DGKA inhibition reactions were performed using ADP-Glo assay. The reactions were carried out in 50 mM HEPES, 100 mM NaCl, 10 mM MgCl2, 1 mM CaCl2, 0.005% TritonX-100 and 1 mM DTT as working solution (pH=7.5). 30 nL DMSO solution of each test compound (Top concentration […] with 10 point, 4-fold dilution series for each compound) were transferred to 384 well plate by Echo and 5 μL DGKA (SignalChem, D21-10BG) enzyme working solution at 2× final reaction concentration was added to each well. After incubated at 25° C. for 15 minutes, 5 μL substrate working solution contain 40 μM ATP (Promega, V915B) and 200 µM DLG (SignalChem, D430-59) were added to initiate reaction. After enzymatic reaction at 25° C. for 60 min, ADP Glo assay reagents (Promega, V9102) were added and luminescence was recorded using an EnVision following the instruction of manual. […] The IC50 value was calculated via a regression analysis of the inhibition rate.

T1 sequence (P23743 whole entry): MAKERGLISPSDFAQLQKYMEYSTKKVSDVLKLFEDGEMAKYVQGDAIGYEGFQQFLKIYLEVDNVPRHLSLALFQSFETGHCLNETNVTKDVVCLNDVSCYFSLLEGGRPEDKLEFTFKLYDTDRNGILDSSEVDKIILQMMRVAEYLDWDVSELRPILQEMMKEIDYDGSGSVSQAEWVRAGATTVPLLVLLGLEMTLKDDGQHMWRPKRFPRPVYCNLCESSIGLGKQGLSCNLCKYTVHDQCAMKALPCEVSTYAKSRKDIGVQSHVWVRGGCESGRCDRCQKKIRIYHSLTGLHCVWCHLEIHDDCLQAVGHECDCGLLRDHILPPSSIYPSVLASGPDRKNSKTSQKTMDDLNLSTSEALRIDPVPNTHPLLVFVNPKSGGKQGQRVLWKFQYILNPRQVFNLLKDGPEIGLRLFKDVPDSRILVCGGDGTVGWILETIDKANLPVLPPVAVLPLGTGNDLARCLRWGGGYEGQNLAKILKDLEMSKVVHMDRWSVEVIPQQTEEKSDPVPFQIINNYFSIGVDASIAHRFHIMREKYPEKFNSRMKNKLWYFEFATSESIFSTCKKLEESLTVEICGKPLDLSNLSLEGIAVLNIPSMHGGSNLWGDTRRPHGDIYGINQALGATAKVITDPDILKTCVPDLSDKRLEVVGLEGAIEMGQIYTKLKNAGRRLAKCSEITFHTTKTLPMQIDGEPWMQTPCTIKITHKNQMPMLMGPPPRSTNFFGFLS

`Cn1c(=O)nc(N2CCOCc3c(N4CCCC4)cccc32)c2cc(C#N)c(OCCO)cc21` [Example 46, 7-(2-hydroxyethoxy)-1-methyl-2-oxo-4-(6-(pyrrolidin-1-yl)-2,3-dihydrobenzo[e][1,4]oxazepin-1(5H)-yl)-1,2-dihydroquinazoline-6-carbonitrile] and `Cn1c(=O)nc(N2CCOCc3c(C#CC4CC4)cccc32)c2cc(C#N)c(OCCO)cc21` [Example 47, 4-(6-(cyclopropylethynyl)-2,3-dihydrobenzo[e][1,4]oxazepin-1(5H)-yl)-7-(2-hydroxyethoxy)-1-methyl-2-oxo-1,2-dihydroquinazoline-6-carbonitrile] cannot be ordered by IC50: less than 1 nM for the first, less than 1 nM for the second.

`C#Cc1cccc2c1COCCN2c1nc(=O)n(C)c2cc(OCCO)c(Cl)cc12` [Example 39, 6-chloro-4-(6-ethynyl-2,3-dihydrobenzo[e][1,4]oxazepin-1(5H)-yl)-7-(2-hydroxyethoxy)-1-methylquinazolin-2(1H)-one] and `CC#Cc1cccc2c1COCCN2c1nc(=O)n(C)c2cc(OCCO)c(Cl)cc12` [Example 40, 6-chloro-7-(2-hydroxyethoxy)-1-methyl-4-(6-(prop-1-yn-1-yl)-2,3-dihydrobenzo[e][1,4]oxazepin-1(5H)-yl)quinazolin-2(1H)-one] cannot be ordered by IC50: less than 1 nM for the first, less than 1 nM for the second.

`Cn1c(=O)nc(N2CCOCc3c(C4CC4)cccc32)c2cc(Cl)c(OCCO)cc21` [Example 37, 6-chloro-4-(6-cyclopropyl-2,3-dihydrobenzo[e][1,4]oxazepin-1(5H)-yl)-7-(2-hydroxyethoxy)-1-methylquinazolin-2(1H)-one] and `Cc1cccc2c1COCCN2c1nc(=O)n(C)c2cc(OCCO)c(Cl)cc12` [Example 38, 6-chloro-7-(2-hydroxyethoxy)-1-methyl-4-(6-methyl-2,3-dihydrobenzo[e][1,4]oxazepin-1(5H)-yl)quinazolin-2(11H)-one] fall in the same range of IC50: 1 to 10 nM for the first, 1 to 10 nM for the second.

`Cn1c(=O)nc(N2CCOCc3c(C#CC4(C(F)(F)F)CC4)ccnc32)c2cc(Cl)c(OCCO)cc21` [Example 30, 6-chloro-7-(2-hydroxyethoxy)-1-methyl-4-(6-((1-(trifluoromethyl)cyclopropyl)ethynyl)-2,3-dihydropyrido[2,3-e][1,4]oxazepin-1(5H)-yl)quinazolin-2(1H)-one] and `Cn1c(=O)nc(N2CCOCc3c(C#CC4(C(F)(F)F)CC4)cncc32)c2cc(Cl)c(OCCO)cc21` [Example 31, 6-chloro-7-(2-hydroxyethoxy)-1-methyl-4-(6-((1-(trifluoromethyl)cyclopropyl)ethynyl)-2,3-dihydropyrido[3,4-e][1,4]oxazepin-1(5H)-yl)quinazolin-2(1H)-one] cannot be ordered by IC50: less than 1 nM for the first, less than 1 nM for the second.

`Cn1c(=O)nc(N2CCOCc3c(C#CC4(C(F)(F)F)CC4)cccc32)c2cc(C#N)c(O[C@H]3CCOC3)cc21` [Example 23, (S)-1-methyl-2-oxo-7-((tetrahydrofuran-3-yl)oxy)-4-(6-((1-(trifluoromethyl)cyclopropyl)ethynyl)-2,3-dihydrobenzo[e][1,4]oxazepin-1(5H)-yl)-1,2-dihydroquinazoline-6-carbonitrile] and `Cn1c(=O)nc(N2CCOCc3c(C#CC4(C(F)(F)F)CC4)cccc32)c2cc(C#N)c(O[C@@H]3CCOC3)cc21` [Example 24, (R)-1-methyl-2-oxo-7-((tetrahydrofuran-3-yl)oxy)-4-(6-((1-(trifluoromethyl)cyclopropyl)ethynyl)-2,3-dihydrobenzo[e][1,4]oxazepin-1(5H)-yl)-1,2-dihydroquinazoline-6-carbonitrile] cannot be ordered by IC50: less than 1 nM for the first, less than 1 nM for the second.

`Cn1c(=O)nc(N2CCOCc3c(C#CC4(C(F)(F)F)CC4)cccc32)c2cc(C#N)c(OC3CCOCC3)cc21` [Example 26, 1-methyl-2-oxo-7-((tetrahydro-2H-pyran-4-yl)oxy)-4-(6-((1-(trifluoromethyl)cyclopropyl)ethynyl)-2,3-dihydrobenzo[e][1,4]oxazepin-1(5H)-yl)-1,2-dihydroquinazoline-6-carbonitrile] and `Cn1c(=O)nc(N2CCOCc3c(C#CC4(C(F)(F)F)CC4)cccc32)c2cc(Cl)c(O[C@H]3CCOC3)cc21` [Example 21, (S)-6-chloro-1-methyl-7-((tetrahydrofuran-3-yl)oxy)-4-(6-((1-(trifluoromethyl)cyclopropyl)ethynyl)-2,3-dihydrobenzo[e][1,4]oxazepin-1(5H)-yl)quinazolin-2(1H)-one] cannot be ordered by IC50: less than 1 nM for the first, less than 1 nM for the second.

`COCCOc1cc2c(cc1C#N)c(N1CCOCc3c(C#CC4(C(F)(F)F)CC4)cccc31)nc(=O)n2C` [Example 18, 7-(2-methoxyethoxy)-1-methyl-2-oxo-4-(6-((1-(trifluoromethyl)cyclopropyl)ethynyl)-2,3-dihydrobenzo[e][1,4]oxazepin-1(5H)-yl)-1,2-dihydroquinazoline-6-carbonitrile] and `Cn1c(=O)nc(N2CCOCc3c(C#CC4(C(F)(F)F)CC4)cccc32)c2cc(C#N)c(NCCO)cc21` [Example 16, 7-((2-hydroxyethyl)amino)-1-methyl-2-oxo-4-(6-((1-(trifluoromethyl)cyclopropyl)ethynyl)-2,3-dihydrobenzo[e][1,4]oxazepin-1(5H)-yl)-1,2-dihydroquinazoline-6-carbonitrile] cannot be ordered by IC50: less than 1 nM for the first, less than 1 nM for the second.

`Cn1c(=O)cc(N2CCOCc3c(C#CC4(C(F)(F)F)CC4)cccc32)c2nc(C#N)ccc21` [Example 2, 5-methyl-6-oxo-8-(6-((1-(trifluoromethyl)cyclopropyl)ethynyl)-2,3-dihydrobenzo[e][1,4]oxazepin-1(5H)-yl)-5,6-dihydro-1,5-naphthyridine-2-carbonitrile] and `Cn1c(=O)nc(N2CCOCc3c(C#CC4(C(F)(F)F)CC4)cccc32)c2cc(Cl)c(NCCO)cc21` [Example 15, 6-chloro-7-((2-hydroxyethyl)amino)-1-methyl-4-(6-((1-(trifluoromethyl)cyclopropyl)ethynyl)-2,3-dihydrobenzo[e][1,4]oxazepin-1(5H)-yl)quinazolin-2(1H)-one] cannot be ordered by IC50: less than 1 nM for the first, less than 1 nM for the second.

First: Cn1c(=O)nc(N2CCOCc3c(C#CC4(C(F)(F)F)CC4)cccc32)c2cc(Cl)c(O[C@@H]3CCOC3)cc21 [Example 22, (R)-6-chloro-1-methyl-7-((tetrahydrofuran-3-yl)oxy)-4-(6-((1-(trifluoromethyl)cyclopropyl)ethynyl)-2,3-dihydrobenzo[e][1,4]oxazepin-1(5H)-yl)quinazolin-2(1H)-one]
Second: CN1CCC(Oc2cc3c(cc2Cl)c(N2CCOCc4c(C#CC5(C(F)(F)F)CC5)cccc42)nc(=O)n3C)C1 (centres unmarked) [Example 35, 6-chloro-1-methyl-7-((1-methylpyrrolidin-3-yl)oxy)-4-(6-((1-(trifluoromethyl)cyclopropyl)ethynyl)-2,3-dihydrobenzo[e][1,4]oxazepin-1(5H)-yl)quinazolin-2(1H)-one]
The IC50 of the first is lower: less than 1 nM for the first, 1 to 10 nM for the second. The first is the more potent here.

`Cn1c(=O)nc(N2CCOCc3c(C#CC4(C(F)(F)F)CC4)cccc32)c2cc(Cl)c(OCCCO)cc21` [Example 27, 6-chloro-7-(3-hydroxypropoxy)-1-methyl-4-(6-((1-(trifluoromethyl)cyclopropyl)ethynyl)-2,3-dihydrobenzo[e][1,4]oxazepin-1(5H)-yl)quinazolin-2(1H)-one] and `Cn1c(=O)nc(N2CCOCc3c(C#CC4(C)CC4)cccc32)c2cc(Cl)c(OCCO)cc21` [Example 29, 6-chloro-7-(2-hydroxyethoxy)-1-methyl-4-(6-((1-methylcyclopropyl)ethynyl)-2,3-dihydrobenzo[e][1,4]oxazepin-1(5H)-yl)quinazolin-2(11H)-one] cannot be ordered by IC50: less than 1 nM for the first, less than 1 nM for the second.
